Reference: patent publication US11129867B2, “Method of treating cancer cells” (priority 2017, dated 2021)
Where a SMILES comes first, the peptide text is derived from it. The star is where a group is joined. X1 = CN(C)c1ccc2c(-c3ccc(C(=O)*)cc3C(=O)[O-])c3ccc(=[N+](C)C)cc-3oc2c1

Columns and labels:
Ca922 cells [1] = experiment: Annexin V staining with flow cytometry; format: cell-based, human; conditions: Ca922, 12.5 μM TMR-GBP, FIG. 6B
Experimental: […] Diluted 10× Binding Buffer to 1× using distilled water. Washed cells once in PBS, then once in 1× Binding Buffer. Resuspended cells in 1× Binding Buffer at 1-5×10^6/mL. Next, added 5 μL of fluorochrome-conjugated Annexin V to 100 μL of the cell suspension. Sample was incubated 10-15 minutes at room temperature. Afterwards, washed cells in 1× Binding Buffer and resuspend in 200 μL of 1× Binding Buffer. Analyzed by flow cytometry within 4 hours, storing at 2-8° C. in the dark.

Huh7 = experiment: WST-8 cell viability assay, Huh7; format: cell-based; conditions: Huh7 (liver cancer), different concentrations, 48 hours, FIG. 3
Experimental: Human oral squamous cell carcinoma (OSCC) cell lines, Ca922, OSC20, OECM-1, OC3, CGHNC9, HSC3, plus A549, MDA-MB-231, MCF7, Huh7, HeLa-Kyoto, Detroit 562, H520, H2170, and 293T cells were used in this study. Ca922, CGHNC9, MDA-MB-231, MCF7, Huh7, HeLa-Kyoto, Detroit 562, and 293T cells were all cultured in high-glucose Dulbecco's Modified Eagle Medium (DMEM). OSC20 and HSC3 cells were cultured in Dulbecco's Modified of Eagle's Medium/Ham's F-12 50/50 Mix (1:1). OECM-1, A549, H520, and H2170 cells were grown in RPMI-1640 medium. All culture media were supplemented with 10% fetal bovine serum (FBS) and 1% penicillin-streptomycin. OC3 cells were cultured in 1:1 DMEM/KSFM (keratinocyte serum-free medium) with supplied supplement of Bovine pituitary extract (BPE) and epidermal growth factor (EGF) followed by instruction. All the cells in this study were maintained at 37° C. in humidified atmosphere containing 5% CO2.
WST-8 [2-(2-methoxy-4-nitrophenyl)-3-(4-nitrophenyl)-5-(2,4-disulfophenyl)-2H-tetrazolium, monosodium salt] cell viability assay
Cells were seeded into 96 well plate and incubated at 37° C. overnight. […] The amount of formazan produced is proportional to the number of live cells and is expressed as cellular viability. […] Cell viability was measured at the absorbance of 450/655 nm wavelength by ELISA reader.

Caspase-3 = experiment: Western blotting of Caspase-3; format: cell-based, human; conditions: Ca922, 25 μM, treatment time up to 48 hours, FIG. 11B, 11C
Experimental: Protein lysate of Ca922 cells treated with TMR-GBP 25 μM were blotted with antibodies against Caspase-3, Caspase-7, Caspase-9 and Poly (ADP-ribose) polymerase (PARP). Representative blots are shown.
Ca922 cells were treated with TMR-GBP and collected at indicated time points. Then blotted for Caspase-3 to observe whether TMR-GBP triggered […] apoptosis pathway.
(§1) Western Blotting Analysis
(§2) Cells were harvested by trypsion or scratch and lysed in RIPA buffer (50 mM Tris-HCl, pH 7.4, 150 mM NaCl, 0.1% SDS, 0.5% Sodium deoxycholate, 1% NP-40) supplemented with 1× protease inhibitor cocktail. Sample was incubated on ice for 30 minutes and scraped every 10 minutes. Centrifuge at 13,000 rpm at 4° C. for 15 minutes, then collect supernatant for analysis. Protein concentration was determined by Bradford assay. First, 5× Bradford assay dye reagent was diluted into […], and mixture with RIPA (as standard) or samples. Concentration was obtained by spectrophotometer measurement. Equal volume of 2× laemmli buffer containing β-ME was added into protein lysate for goal concentration. […] Washing the membrane three times with 1×PBST for every 5 minutes, protein band was detected by modified ECL (ddH2O, […] Tris pH8.0, 200 μM p-coumaric acid, 1.25 mM luminal, 0.001% H2O2) with ImageQuant LAS 4000 digital imaging system.

OECM-1 = experiment: Time-lapse live cell imaging, OECM-1; format: cell-based, human; conditions: OECM-1, unbound TMR-GBP removed, imaged at 15 minutes interval for 16 hours, FIG. 4
Experimental: (§3) Time-Lapse Live Cell Imaging
(§4) In order to monitor cell morphology and the stability of TMR-GBP, cells were incubated in 35 mm dish or 4 well dish at 37° C. overnight. Replaced the culture medium with CO2-independent medium with supplement of 10% fetal bovine serum (FBS) and 1% penicillin-streptomycin, cells were treated with reagent (TMR, GBP, TMR-GBP) for the time according to the experiment and subjected to time-lapse live cell imaging. Cells were maintained on the microscope stage incubator at 37° C. Multiple-positional time-lapse imaging was performed using an automated Leica DMI6000 inverted microscope equipped with an HCX PL FL 20λ/NA0.4 objective and Andor Luca R EMCCD camera. Images of cells were taken at different interval time and analyzed by MetaMorph software.

Ca922 cells [2] = experiment: Time-lapse live cell imaging, Ca922; format: cell-based
Experimental: Ca922 cells were grown on 35 mm culture dishes overnight then treated with 1% DMSO, 12.5 μM TMR, GBP, TMR-GBP respectively and monitored by time-lapse live cell microscope. Cells were exposed to indicate wavelength once every 4 hours for 100 ms and continuously for 20 hours. At least 300 cells in five different fields were counted for each experiment using microcopy that captured images under 10× magnification. Mortality rate was evaluated by counting the percentage of dead cells in the whole population. Standard deviations of three independent experiments were indicated as bars.
as §3, §4

Bax = experiment: Western blotting of pro-apoptotic protein Bax; format: cell-based, human; conditions: Ca922, 25 μM, indicated time points, FIG. 6C
Experimental: Protein expression of pro-apoptotic protein Bax were examined in Ca922 cells treated with 25 μM TMR-GBP for indicated time points. The relative protein level was presented below the blot as ratios which was normalized to Bax value of control cells (0 hour).
as §1
as §2, with “concentration. Protein samples were boiled at 100° C. for 15 minutes and resolved by 10% SDS-PAGE gel or 4%-15% gradient gel. Then, transfer to PVDF membrane by 100V or 110V voltage for 1 hour.” for “concentration.”

For `CN(C)c1ccc2c(-c3ccc(C(=O)N[C@@H](CC(N)=O)C(=O)N[C@@H](Cc4ccc(O)cc4)C(=O)N[C@@H](CCCNC(=N)N)C(=O)N[C@@H](Cc4c[nH]c5ccccc45)C(=O)N[C@@H](CCCNC(=N)N)C(=O)N[C@@H](CS)C(=O)N[C@@H](CCCCN)C(=O)N[C@@H](CC(N)=O)C(=O)N[C@@H](CCC(N)=O)C(=O)N[C@@H](CC(N)=O)C(=O)O)cc3C(=O)[O-])c3ccc(=[N+](C)C)cc-3oc2c1` [TMR-GBP] (X1-NYRWRCKNQN-OH; N-terminus and C-terminus assumed), the “apoptosis by Annexin-V-FITC labeling” value (Ca922 cells [1]) was “positively labeled by Annexin-V-FITC”, the cell viability (Huh7) was “not markedly affected” and the “activation of caspase-3” value (Caspase-3) was “did not activate”. For the same compound, the “cell death by time-lapse microscopy” value (OECM-1) was “most cells die in 8 hours”, the “cytotoxicity under light stress (mortality)” value (Ca922 cells [2]; Ca922, 12.5 μM, exposed to 532 nm, 488 nm, 405 nm and brightfield, after 20 hours, FIG. 2) was “more sensitive to 532 nm light stress and displayed cytotoxic effects” and the “cell death by time-lapse microscopy” value (Ca922 cells [2]; Ca922, unbound TMR-GBP removed, imaged at 15 minutes interval for 16 hours, FIG. 4) was “most cells die in 8 hours”. For the same compound, the “protein expression of Bax” value (Bax) was “increased”.
